The source of these data is publication PMC12394750, “2H-1,4-Benzoxazin-3(4H)-one linked 1,2,3-triazole derivatives and their study on inducing DNA damage in tumor cells” (Frontiers in Pharmacology, 2025).

The subject of one series is A549 (lung cancer). Briefly: CCK-8 cell viability, A549. Type of series: cell-based. To be noted: Homo sapiens, 72 h. The protocol: To assess the cytotoxic potential of the newly synthesized compounds c1–c20, a panel of human tumor cell lines—including Huh-7 (hepatocellular carcinoma), MCF-7 (breast cancer), and A549 (lung cancer)—was treated with each compound at a concentration of 50 μM for 72 h. Cell viability and cytotoxicity were evaluated using the CCK-8 assay.
Cells were cultured in DMEM or RPMI 1640 medium with 10% FBS and 1% penicillin/streptomycin at 37 °C and 5% CO2. A CCK-8 assay was performed with several human cancer cell lines, including A549, Huh-7, MCF-7, HCT-116, and SKOV3, according to the instructions. Cells were plated at a density of 1,000–3,000 cells per well in a 96-well plate. After 24-h incubation, cells were treated with 40 μM compounds for 48 h or 50 μM compounds for 72 h. Cell viability was measured by adding 10 μL per well of CCK-8 reagent, which was dissolved in the cell culture medium, for 1 hour. Absorbance was taken at 450 nm using a microplate reader. The IC50 values of the compounds were further determined. Cells were seeded in a 96-well plate at a density of 1 × 10^3 cells/well. After adhering overnight, cells treated with […] concentrations (10 μM, 20 μM, 40 µM, or 80 μM) were used to draw the dose–response curve, and IC50 values were calculated by GraphPad Prism software. The CCK-8 assay was performed in triplicate, and each experiment was repeated at least three times. The results were expressed as mean ± SEM, and P < 0.05 was considered statistically significant.

Series [1] has as its system Huh-7 cells. Briefly: Calcein AM/PI live/dead viability assay. The series is classed as cell-based, human. To be noted: Huh-7, 10, 20 or 30 μM, 24 h. As to the method: To evaluate the anti-proliferative effects of 2H-1,4-benzoxazin-3(4H)-one linked 1,2,3-triazole derivatives, live/dead cell staining was performed using Calcein AM and PI on Huh-7 cells. The cells were treated with different concentrations (10 μM, 20 μM, or 30 μM) of compounds c5, c14, c16, and c18 for 24 h. Living cells were stained green by Calcein AM, while dead cells were stained red by PI.
FIGURE 4 Compounds c5, c14, c16, and c18 increased dead cells and decreased living cells. (A–D) Huh-7 cells were treated with different concentrations of compounds c5, c14, c16, and c18 (10 μM, 20 μM, or 30 μM) for 24 h. Living and dead cells were stained with Calcein AM and PI, respectively, and then observed by confocal microscopy. Data were presented as means ± SEM; *P < 0.05.
A live and dead viability assay was performed using the Calcein/PI Live/Dead Viability Assay Kit. Cells were plated at a density of 2 × 10^3 cells per well in a 96-well plate to adhere overnight. Then, compounds were added with different concentrations for 24 h. The medium was replaced with cell culture medium containing Calcein AM and propidium iodide for 30 min at 37 °C in the dark. Cells were then observed and photographed by confocal microscopy.

Series [2] concerns Huh-7 cells. Description: Western blot protein expression. The series is classed as cell-based, human. To be noted: Huh-7, 72 h (Figure 6 legend 24 h), 20 or 30 μM. The protocol:
To further examine the regulatory effects of 2H-1,4-benzoxazin-3(4H)-one linked 1,2,3-triazole derivatives on protein expression, Huh-7 cells were treated with compounds c5, c14, c16, and c18 for 72 h, after which whole-cell protein lysates were collected for analysis.
FIGURE 6 Compounds c5, c14, c16, and c18 affected DNA damage and autophagy. (A–D) Huh-7 cells were treated with different concentrations of compounds c5, c14, c16, and c18 (20 or 30 μM) for 24 h. Protein expressions were analyzed by Western blot. Top: Western blot; bottom: quantitative measurements relative to ACTIN. Data were presented as means ± SEM; *P < 0.05.
Antibodies used in Western blot were as follows: caspase3, caspase9, LC3, γ-H2AX, PARP, cyclin D, cyclin E, β-catenin (all from Cell Signaling Technology, United States), and β-actin (Sigma, United States). Cells were treated with compounds (0 μM, 5 μM, 10 μM, 20 μM, or 30 μM) for 72 h, and the whole-cell proteins were collected using RIPA buffer containing protease/phosphatase inhibitor cocktail. The protein expressions were measured and analyzed using Western blot. Values were expressed as mean ± SEM. Statistical significance was assessed using a two-tailed Student’s t-test. P < 0.05 was considered statistically significant. Data were visualized using GraphPad Prism.
(A western blot detects proteins with antibodies after separation by electrophoresis.)

Series [3] relates to Huh-7 cells. Briefly: DNA damage staining (γ-H2AX). The series is classed as cell-based, human. The conditions noted are these: Huh-7, 10, 20 or 30 μM, 24 h. As to the method:
In order to further verify the effects of 2H-1,4-benzoxazin-3(4H)-one linked 1,2,3-triazole derivatives on DNA damage, Huh-7 cells were treated with different concentrations (10 μM, 20 μM, or 30 μM) of compounds c5, c14, c16, and c18. After 24 h of treatment, cells were detected with the DNA damage assay kit and observed under a fluorescence microscope.
FIGURE 7 Compounds c5, c14, c16, and c18 affected DNA damage. (A–D) DNA damage detection shown by γ-H2AX staining in Huh-7 cells treated with compounds c5, c14, c16, and c18 (10 μM, 20 μM, or 30 μM).
Huh-7 cells with a density of 2 × 10^3 cells/well were seeded in 96-well plates. Different doses (0 μM, 5 μM, 10 μM, 20 μM, or 30 μM) of the compounds were added to cells for 24 h. A DNA Damage Detection Kit was used to dye the cells. The cell nucleus was stained blue, and DNA-damaged cells were stained green. The cells were observed and photographed by a fluorescent microscope.

In the next series the test system is KM mice. Briefly: Acute toxicity test, HE staining of organs. The series is classed as in vivo. To be noted: male KM mice, 500 mg/kg via gavage, 14 consecutive days. The protocol:
We assessed the safety of compound c18 using an acute toxicity test in KM mice. Male mice were divided into a control group and a c18-treated group, with the latter receiving 500 mg/kg of compound c18 via gavage for 14 consecutive days, while the control group received an equivalent volume of solvent. To evaluate the safety of compound c18, major organs—including the heart, liver, spleen, lungs, and kidneys—were collected from treated KM mice and subjected to hematoxylin and eosin (HE) staining.

The structures appear in SMILES notation.

As for `O=C1COc2cc(NC(=O)c3cccc(-c4cn(Cc5ccc(C(F)(F)F)cc5)nn4)c3)ccc2N1` [compound c16, N-(3-oxo-3,4-dihydro-2H-benzo[b][1,4]oxazin-7-yl)-3-(1-(4-(trifluoromethyl)benzyl)-1H-1,2,3-triazol-4-yl)benzamide], the viability at 50 µM with A549 (lung cancer) turned out to be 76.8 ± 4.31%. Also, the “Dead cells (PI) in live/dead staining” value with Huh-7 cells [1] is reported as “dose-dependent increase”. In addition, in the series on Huh-7 cells [2], the H2AX protein expression result is “upregulation”, the LC3 protein expression entry is “upregulation”, the PARP protein expression entry is listed as “upregulation” and the “cyclin D protein expression” value was “downregulation”. Further, in the series on Huh-7 cells [3], the “DNA damage (γ-H2AX staining)” value was “significantly induce cell DNA damage”.

Regarding `O=C1COc2cc(NC(=O)c3cccc(-c4cn(Cc5ccc(Cl)cc5)nn4)c3)ccc2N1` [compound c18, 3-(1-(4-chlorobenzyl)-1H-1,2,3-triazol-4-yl)-N-(3-oxo-3,4-dihydro-2H-benzo[b][1,4]oxazin-7-yl)benzamide], the “Histopathological changes of heart, liver, spleen, lungs, kidneys (HE staining)” value with KM mice is given as “no significant histopathological changes”. Moreover, the viability at 50 µM in the series on A549 (lung cancer) is 89.8 ± 2.89%. In addition, the “Dead cells (PI) in live/dead staining” value in the series with Huh-7 cells [1] is listed as “dose-dependent increase”. Also, in the series with Huh-7 cells [2], the H2AX protein expression result is listed as “upregulation”, the LC3 protein expression entry was “upregulation”, the PARP protein expression entry is given as “upregulation” and the “cyclin D protein expression” value is “downregulation”. Also, the “DNA damage (γ-H2AX staining)” value in the series with Huh-7 cells [3] was “significantly induce cell DNA damage”.

`O=C1COc2cc(NC(=O)c3cccc(-c4cn(Cc5cccc(F)c5)nn4)c3)ccc2N1` [compound c14, 3-(1-(3-fluorobenzyl)-1H-1,2,3-triazol-4-yl)-N-(3-oxo-3,4-dihydro-2H-benzo[b][1,4]oxazin-7-yl)benzamide] had a viability at 50 µM in the series on A549 (lung cancer) of 77.5 ± 3.1%. Also, in the series on Huh-7 cells [1], the “Dead cells (PI) in live/dead staining” value is “dose-dependent increase”. Further, in the series on Huh-7 cells [2], the H2AX protein expression entry is given as “upregulation”, the LC3 protein expression result was “upregulation”, the PARP protein expression result was “upregulation” and the “cyclin D protein expression” value is given as “downregulation”. In the series with Huh-7 cells [3], the “DNA damage (γ-H2AX staining)” value is reported as “significantly induce cell DNA damage”.

Molecule `O=C1COc2cc(NC(=O)c3cccc(-c4cn(Cc5ccc(Br)cc5)nn4)c3)ccc2N1` [compound c5, 3-(1-(4-bromobenzyl)-1H-1,2,3-triazol-4-yl)-N-(3-oxo-3,4-dihydro-2H-benzo[b][1,4]oxazin-7-yl)benzamide] had a viability at 50 µM with A549 (lung cancer) of 90.8 ± 5.32%. Also, the “Dead cells (PI) in live/dead staining” value in the series with Huh-7 cells [1] is reported as “dose-dependent increase”. Besides, in the series on Huh-7 cells [2], the H2AX protein expression entry is listed as “upregulated”, the LC3 protein expression entry was “significantly induced”, the PARP protein expression result was “upregulated” and the caspase-3 protein expression result is given as “upregulated”. Moreover, the “cyclin D protein expression” value in the series with Huh-7 cells [2] is reported as “downregulated”. In the series with Huh-7 cells [3], the “DNA damage (γ-H2AX staining)” value is reported as “significantly induce cell DNA damage”.

As usually defined, the viability is a per cent measure of how many cells are alive, often set against a control. A higher viability goes with better survival.
